Here are results for 55 molecules from patent publication US20030203959A1, “Novel modulators of potassium channels” (4SC AG, priority 2002, published 2003).

In test [1] the target is BK currents, cloned α-hSlo and β-bSlo in CHO cells (Homo sapiens, UniProt Q12791). The experiment in a line: Electrophysiological studies (whole-cell patch-clamp, BK currents). Format: cell-based. The note with it: ratio of current increase after application of compound (20 μM) relative to control current before application, steady-state. How it is done:
CHO cells permanently transfected with cloned α-hSlo and β-bSlo were maintained as described above and used for electrophysiologial characterisation. The whole-cell configuration of the patch-clamp technique was used to determine the effect of modulators on BK currents in these cells. The cell line expressing functional BK currents (Zhou et al., Pflügers Arch 436, p.725 (1998)) were plated onto glass cover slips with a density of 1-5×10^4 cells/cover slip, incubated (37° C., 5% CO2) and used for patch-clamp experiments within 24-48 h. Cells were bathed in mammalian ringer solutions containing (in mM): 160 NaCl, 4.5 KCl, 2CaCl2, 1 MgCl2, 10 HEPES, adjusted to pH 7.4, 290-310 mOsim. The internal pipette solution contained (in mM): 160 KCl, 2CaCl2, 1 MgCl2, 10 HEPES, EGTA was added to reach a free [Ca^2+]internal=1×10 ^−6M, adjusted to pH 7.2, 290-310 mOsm.
Borosilicate pipettes with a resistance of 2-3 MΩ were filled with the internal solution and mounted on an appropriate holder. Prior to measurements a recording chamber was mounted onto the cell-plated cover slips and the cells were perfused with a simple syringe driven perfusion system. Compounds were added in the final concentration ([…]) to the bath solution using the same system. An EPC-9 patch-clamp amplifier with Pulse and PulseFit software (HEKA) was used to record and analyze currents.
After addition of the compounds to the bath solution their modulating effect was determined by the increase or decrease of specific BK currents after reaching steady-state relative to the BK current before application of drugs (see Table II).
(In general: The patch-clamp technique gives a direct electrical read-out from membranes.)

For test [2], the target named is BK channels, cloned hSlo (α-hSlo and β-bSlo) in CHO cells (Homo sapiens, UniProt Q12791). Kind of test: Em-Assay (voltage sensitive dye DiBAC(4)3 fluorescence, membrane potential). The note with it: ratio of the compound effect (50 μM) compared to the maximal effect of NS004 (25 or 50 μM); hSlo transfected CHO cells. Format: cell-based. An excerpt:
The large conductance, voltage dependent and Ca^2+-activated potassium channel BK is a potassium selective ion channel and belongs to the subfamily of KCa channels. Four BK alpha-subunits form a functional channel that can be regulated by intracellular Ca^2+ concentration, membrane voltage, and other mechanisms like phosphorylation states or beta subunits. To test the biological activity of the compounds, we applied two different techniques, a fluorescence based assay using a voltage sensitive dye (Em-Assay) as well as exploiting electrophysiological methods.
CHO cells permanently transfected with cloned hSlo (α-hSlo and β-bSlo), yielding typical BK potassium currents (Zhou et al., Pflügers Arch., 436: 725-734 (1998), were used for the evaluation of compound activity. Activation or inhibition of BK channels in these cells leads to a change of the electrochemical gradient causing a hyperpolarized or depolarised membrane potential, respectively.
To determine changes in the membrane potential of the cells we used the voltage sensitive dye DiBAC(4)3 (Molecular Probes) in a kinetic assay system using a fluorescent plate reader (Manning and Sontheimer, J. Neurosci. Meth., 91: 73-81 (1999). The anionic bis-oxonol DiBAC(4)3 is a voltage sensitive dye which partitions from the extracellular environment into the cell where it reversibly binds to intracellular proteins, a kinetic process depending on the membrane potential of the cell. At depolarised potentials (i.e. at a reduced K^+ efflux due to blocked K^+ channels) the dye accumulates in the cell leading to an increased fluorescence intensity, due to its increased fluorescence if bound to cellular proteins. At hyperpolarized potentials (i.e. at an increased K^+ efflux due to the opening of K^+ channels), the dye partitions out of the cell causing a decreased fluorescence intensity.
hSlo transfected CHO cells where maintained in DMEM supplemented with 10% FCS, 250 μg/ml Geneticin, 100 μg/ml Hygromycin, 1×HT-Supplement, and 1×Non-essential Amino Acids and cultured in a humidified CO2 incubator. After trypsination, cells where plated with a density of 5×10^4 cells per well on a clear 96-well plate and incubated for 24 h. Cells where washed once with PBS, once with PBS containing 20 mM HEPES (adjusted to pH 7.4 with NaOH) and 2 μM DiBAC(4)3 (DPBS-DiMAC solution). 180 μl of the dPBS-DiBAC solution was then added to the cells and the plate incubated for 30-60 min at 37° C. During this time the dye could partition into the cells and reach a certain steady-state distribution, depending on the resting membrane potential. Test and reference compounds were stored as DMSO stock solutions and diluted in dPBS-DiBAC solution to the desired concentration.
Fluorescence intensity (Ex.: 485 nm/Em: 520 nm) of each well was detected in the plate reader (Fluostar, BMG) every 60 seconds. After recording the baseline fluorescence for 7 minutes, 20 μl test and reference compounds were added and the fluorescence intensity was detected for additional 15 minutes. Background was subtracted, data values were normalized and expressed as a change in fluorescence intensity against time. The change in fluorescence intensity caused by the test compounds was evaluated compared to the effect of the reference compound NS004, and the ratio was determined (see Table I).

Sequence of BK currents, cloned α-hSlo and β-bSlo in CHO cells (Q12791 whole entry): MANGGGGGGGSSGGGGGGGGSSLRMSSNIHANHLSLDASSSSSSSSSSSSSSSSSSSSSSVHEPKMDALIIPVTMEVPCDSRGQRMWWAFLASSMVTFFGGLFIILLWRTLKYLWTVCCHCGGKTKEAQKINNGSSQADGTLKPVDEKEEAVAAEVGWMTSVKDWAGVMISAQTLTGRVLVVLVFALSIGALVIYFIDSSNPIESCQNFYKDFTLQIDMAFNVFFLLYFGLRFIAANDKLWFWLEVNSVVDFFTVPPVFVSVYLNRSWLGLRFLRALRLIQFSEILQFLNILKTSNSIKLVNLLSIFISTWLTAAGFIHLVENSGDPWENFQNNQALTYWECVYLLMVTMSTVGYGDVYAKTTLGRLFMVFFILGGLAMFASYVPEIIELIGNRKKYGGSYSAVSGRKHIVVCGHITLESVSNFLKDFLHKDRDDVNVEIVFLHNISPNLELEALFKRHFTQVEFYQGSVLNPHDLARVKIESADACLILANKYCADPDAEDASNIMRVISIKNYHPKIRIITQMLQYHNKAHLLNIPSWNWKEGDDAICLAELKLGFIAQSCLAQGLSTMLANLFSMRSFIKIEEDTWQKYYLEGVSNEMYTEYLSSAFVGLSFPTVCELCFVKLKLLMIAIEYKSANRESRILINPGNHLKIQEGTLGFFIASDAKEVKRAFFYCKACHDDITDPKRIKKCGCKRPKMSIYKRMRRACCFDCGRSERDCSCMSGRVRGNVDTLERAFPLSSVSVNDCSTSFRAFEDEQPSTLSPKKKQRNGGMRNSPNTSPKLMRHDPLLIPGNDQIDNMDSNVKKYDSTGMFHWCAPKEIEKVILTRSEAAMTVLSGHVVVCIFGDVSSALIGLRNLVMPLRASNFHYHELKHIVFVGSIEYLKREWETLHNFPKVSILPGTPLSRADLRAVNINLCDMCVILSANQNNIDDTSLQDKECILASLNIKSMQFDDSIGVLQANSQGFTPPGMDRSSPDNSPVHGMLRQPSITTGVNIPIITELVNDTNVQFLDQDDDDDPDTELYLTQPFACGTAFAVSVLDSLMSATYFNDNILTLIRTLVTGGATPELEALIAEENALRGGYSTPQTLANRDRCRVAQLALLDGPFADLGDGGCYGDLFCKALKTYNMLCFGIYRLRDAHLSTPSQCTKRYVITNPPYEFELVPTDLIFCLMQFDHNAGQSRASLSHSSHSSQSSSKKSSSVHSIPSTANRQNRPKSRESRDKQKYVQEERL
Sequence of BK currents, cloned α-hSlo and β-bSlo in CHO cells (Q28067 whole entry partner): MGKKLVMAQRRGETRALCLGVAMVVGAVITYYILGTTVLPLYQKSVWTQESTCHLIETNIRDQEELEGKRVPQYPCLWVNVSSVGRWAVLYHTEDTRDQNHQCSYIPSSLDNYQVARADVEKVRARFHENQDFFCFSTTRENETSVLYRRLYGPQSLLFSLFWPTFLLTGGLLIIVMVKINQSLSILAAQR
Sequence of BK channels, cloned hSlo (α-hSlo and β-bSlo) in CHO cells (Q12791 whole entry): as the sequence (Q12791 whole entry) above
Sequence of BK channels, cloned hSlo (α-hSlo and β-bSlo) in CHO cells (Q28067 whole entry partner): as the sequence (Q28067 whole entry partner) above

Regarding `FC(F)(F)Oc1ccc(-c2ccc3[nH]ccc3c2)cc1` [Compound 1], in test [1], the “Effect (ratio of current increase)” value was “++ (>1,1-1.2=++)”. Besides, the Em effect result in test [2] is listed as “++ (>1=++)”.
Regarding `CN(C)c1ccc(-c2ccc3[nH]ccc3c2)cc1` [Compound 2], the “Effect (ratio of current increase)” value in test [1] is on record as “+ (1-1.1=+)”. The Em effect result in test [2] was “+ (0-1=+)”.
As to `Fc1ccc(-c2ccc3[nH]ccc3c2)c(F)c1` [Compound 3], the “Effect (ratio of current increase)” value in test [1] is “+++ (>1.2=+++)”. For the same molecule, the Em effect entry in test [2] is “++ (>1=++)”.
For the molecule `FC(F)(F)c1ccc(-c2ccc3[nH]ccc3c2)cc1` [Compound 4], the “Effect (ratio of current increase)” value in test [1] was “++ (>1,1-1.2=++)”. The Em effect entry in test [2] is reported as “++ (>1=++)”.
On to `COc1ccccc1-c1ccc2[nH]ccc2c1` [Compound 5], for which the “Effect (ratio of current increase)” value in test [1] is recorded as “++ (>1,1-1.2=++)”. Further, the Em effect result in test [2] was “++ (>1=++)”.
In the case of `Clc1ccc(-c2cccc3cc[nH]c23)s1` [Compound 6], in test [2], the Em effect entry was “+ (0-1=+)”.
For the molecule `COc1ccccc1-c1cccc2cc[nH]c12` [Compound 7], in test [2], the Em effect entry was “+ (0-1=+)”.
Still for that read-out and setting: under `FC(F)(F)c1ccc(-c2cccc3cc[nH]c23)cc1` [Compound 8] stands “+ (0-1=+)”.
As for `Clc1ccccc1-c1cccc2cc[nH]c12` [Compound 9], in test [2], the Em effect result is on record as “+ (0-1=+)”.
For `Fc1ccc(-c2cccc3cc[nH]c23)c(F)c1` [Compound 10], the Em effect entry in test [2] is given as “+ (0-1=+)”.
For `CN(C)c1ccc(-c2cccc3cc[nH]c23)cc1` [Compound 11], the Em effect entry in test [2] is “++ (>1=++)”.
Regarding `Clc1ccc(-c2ccc3cc[nH]c3c2)s1` [Compound 13], the Em effect entry in test [2] is “+ (0-1=+)”.
As for `FC(F)(F)c1ccc(-c2ccc3cc[nH]c3c2)cc1` [Compound 14], the Em effect result in test [2] was “+ (0-1=+)”.
As to `Clc1ccccc1-c1ccc2cc[nH]c2c1` [Compound 15], in test [2], the Em effect result was “+ (0-1=+)”.
With `Fc1ccc(-c2ccc3cc[nH]c3c2)c(F)c1` [Compound 16], in test [2], the Em effect entry is given as “+ (0-1=+)”.
`CN(C)c1ccc(-c2ccc3cc[nH]c3c2)cc1` [Compound 17]: the Em effect entry in test [2] is recorded as “++ (>1=++)”.
With `COc1ccccc1-c1ccc2cc[nH]c2c1` [Compound 19], the Em effect result in test [2] was “+ (0-1=+)”.
Same read-out and setting: under `FC(F)(F)c1cc(-c2cccc3[nH]ccc23)cc(C(F)(F)F)c1` [Compound 20] stands “+ (0-1=+)”; under `Fc1cc(-c2cccc3[nH]ccc23)ccc1-c1ccccc1` [Compound 21], “+ (0-1=+)”.
With `Clc1ccc(-c2cccc3[nH]ccc23)s1` [Compound 22], the “Effect (ratio of current increase)” value in test [1] is reported as “++ (>1,1-1.2=++)”. Moreover, in test [2], the Em effect entry is reported as “+ (0-1=+)”.
With `c1cc(-c2ccsc2)c2cc[nH]c2c1` [Compound 23], in test [2], the Em effect result is “+ (0-1=+)”.
`COc1ccccc1-c1cccc2[nH]ccc12` [Compound 24]: the Em effect entry in test [2] is on record as “+ (0-1=+)”.
As to `FC(F)(F)c1ccc(-c2cccc3[nH]ccc23)cc1` [Compound 25], the Em effect result in test [2] is listed as “+ (0-1=+)”.
Regarding `Clc1ccccc1-c1cccc2[nH]ccc12` [Compound 26], in test [2], the Em effect result is listed as “+ (0-1=+)”.
Regarding `FC(F)(F)Oc1ccc(-c2cccc3[nH]ccc23)cc1` [Compound 28], in test [2], the Em effect result is “+ (0-1=+)”.
Turning to `CS(=O)(=O)c1ccc(-c2ccc3[nH]ccc3c2)cc1` [Compound 29], the Em effect result in test [2] was “+ (0-1=+)”.
Regarding `O=Cc1ccccc1-c1ccc2[nH]ccc2c1` [Compound 31], the Em effect result in test [2] is given as “+ (0-1=+)”.
Regarding `CC(C)(C)c1ccc(-c2ccc3[nH]ccc3c2)cc1` [Compound 32], the Em effect entry in test [2] was “+ (0-1=+)”.
With `O=[N+]([O-])c1ccccc1-c1ccc2[nH]ccc2c1` [Compound 33], in test [2], the Em effect entry is recorded as “+ (0-1=+)”.
As to `FC(F)(F)Oc1cccc(-c2ccc3[nH]ccc3c2)c1` [Compound 34], in test [2], the Em effect entry is “+ (0-1=+)”.
As to `COc1ccc(-c2ccc3cc[nH]c3c2)cn1` [Compound 35], the Em effect entry in test [2] was “+ (0-1=+)”.
For `c1ccc(COc2ccc(-c3cccc4[nH]ccc34)cc2)cc1` [Compound 36], the Em effect entry in test [2] is listed as “+ (0-1=+)”.
Regarding `Fc1cccc(-c2ccc3cc[nH]c3c2)c1` [Compound 37], the Em effect result in test [2] was “+ (0-1=+)”.
For `FC(F)(F)Oc1cccc(-c2cccc3cc[nH]c23)c1` [Compound 38], in test [2], the Em effect entry is listed as “+ (0-1=+)”.
Still for that read-out and setting: under `CC(C)(C)c1ccc(-c2cccc3[nH]ccc23)cc1` [Compound 39] stands “++ (>1=++)”.
Same read-out and setting: under `COc1ccc(-c2cccc3[nH]ccc23)cc1` [Compound 42] stands “+ (0-1=+)”; under `c1cc2cc(-c3ccc4[nH]ccc4c3)ccc2[nH]1` [Compound 43], “+ (0-1=+)”; under `c1ccc2c(-c3ccc4[nH]ccc4c3)cccc2c1` [Compound 44], “++ (>1=++)”.
Regarding `Clc1ccc(-c2ccc3[nH]ccc3c2)cc1` [Compound 46], the Em effect result in test [2] is reported as “++ (>1=++)”.
In the case of `c1cc(-c2ccc3[nH]ccc3c2)c2cc[nH]c2c1` [Compound 47], the Em effect entry in test [2] is recorded as “+ (0-1=+)”.
Consider `COc1ccc(-c2ccc3[nH]ccc3c2)c(OC)c1` [Compound 48], for which, in test [2], the Em effect entry is “++ (>1=++)”.
Turning to `CC(=O)c1cccc(-c2ccc3[nH]ccc3c2)c1` [Compound 49], the Em effect result in test [2] was “+ (0-1=+)”.
On to `c1cc2cc(-c3ccc4c(c3)OCO4)ccc2[nH]1` [Compound 50], for which the Em effect result in test [2] was “++ (>1=++)”.
For the molecule `COc1c(C)cc(-c2ccc3[nH]ccc3c2)cc1C` [Compound 51], the Em effect result in test [2] is on record as “++ (>1=++)”.
Consider `c1ccc(-c2ccc3[nH]ccc3c2)nc1` [Compound 52], for which, in test [2], the Em effect entry is reported as “+ (0-1=+)”.
In the case of `c1cc2cc(-c3ccc4cc[nH]c4c3)ccc2[nH]1` [Compound 53], the Em effect entry in test [2] is on record as “++ (>1=++)”.
Take `COc1ccc(-c2ccc3[nH]ccc3c2)cc1` [Compound 54]: the Em effect result in test [2] is listed as “++ (>1=++)”.
Consider `Fc1ccc(-c2cccc3[nH]ccc23)c(F)c1` [Compound 55], for which, in test [2], the Em effect entry is listed as “+ (0-1=+)”.
For `COc1cccc(-c2cccc3[nH]ccc23)c1` [Compound 56], the Em effect result in test [2] was “+ (0-1=+)”.
For the molecule `c1ccc(Oc2ccc(-c3cccc4[nH]ccc34)cc2)cc1` [Compound 57], in test [2], the Em effect entry was “+ (0-1=+)”.
For `Clc1ccc(-c2ccc3cc[nH]c3c2)cc1` [Compound 58], the Em effect result in test [2] was “+ (0-1=+)”.
With `c1ccc(-c2ccc3[nH]ccc3c2)cc1` [Compound 59], in test [2], the Em effect entry is “+ (0-1=+)”.
On the same count and under the same terms, then `c1ccc(-c2cccc(-c3ccc4cc[nH]c4c3)c2)cc1` [Compound 60], with “+ (0-1=+)”; and `FC(F)(F)c1cc(-c2ccc3cc[nH]c3c2)cc(C(F)(F)F)c1` [Compound 61], with “+ (0-1=+)”; and `CC(C)(C)c1ccc(-c2ccc3cc[nH]c3c2)cc1` [Compound 62], with “+ (0-1=+)”.
